Test results reported in patent publication US10118901B2 (priority 2013, dated 2018).

What was measured:
Type in all cases: cell-based, human
M14 = assay: NCI-60 screen at 10 μM: M14; details: Melanoma M14; 10 μM single dose; 48 hrs
Experimental: (§1) NL-101 and CY-102 was sent to U.S. National Cancer Institute (NCI) for NCI 60-cell line screening using a single compound dose (10 μM).
(§2) The human tumor cell lines of the cancer screening panel were grown in RPMI 1640 medium containing 5% fetal bovine serum (5% FBS) and 2 mM L-glutamine. For a typical screening experiment, cells were inoculated into 96-well microtiter plates in 100 μL, at plating densities ranging from 5,000 to 40,000 cells/well depending on the doubling time of individual cell lines. After cell inoculation, the microtiter plates were incubated at 37° C., 5% CO2, 95% air, and 100% relative humidity for 24 h prior to addition of experimental compounds. […]
(§3) Following drug addition, the plates were incubated for an additional 48 hrs at 37° C., 5% CO2, 95% air, and 100% relative humidity. […] Bound stain was subsequently solubilized with 10 mM trizma base, and the absorbance was read on an automated plate reader at a wavelength of 515 nm. […]
(§4) Using the seven absorbance measurements [time zero, (Tz), control growth, (C), and test growth in the presence of drug at the 10 μM concentration levels (Ti)], percentage growth was calculated at each of the drug concentrations levels. Percentage growth inhibition was calculated as: [(Ti−Tz)/(C−Tz)]×100 for which Ti>/=Tz or [(Ti−Tz)/Tz]×100 for which Ti<Tz.

OVCAR-8 = assay: NCI-60 screen at 10 μM: OVCAR-8; details: Ovarian Cancer OVCAR-8; 10 μM single dose; 48 hrs
Experimental: as §1, §2, §3, §4

RXF 393 = assay: NCI-60 screen at 10 μM: RXF 393; details: Renal Cancer RXF 393; 10 μM single dose; 48 hrs
Experimental: as §1, §2, §3, §4

UO-31 = assay: NCI-60 screen at 10 μM: UO-31; details: Renal Cancer UO-31; 10 μM single dose; 48 hrs
Experimental: as §1, §2, §3, §4

OVCAR-3 = assay: NCI-60 screen at 10 μM: OVCAR-3; details: Ovarian Cancer OVCAR-3; 10 μM single dose; 48 hrs
Experimental: as §1, §2, §3, §4

NCI-H460 = assay: NCI-60 screen at 10 μM: NCI-H460; details: NSCLC NCI-H460; 10 μM single dose; 48 hrs
Experimental: as §1, §2, §3, §4

T-47D = assay: NCI-60 screen at 10 μM: T-47D; details: Breast Cancer T-47D; 10 μM single dose; 48 hrs
Experimental: as §1, §2, §3, §4

HCC-2998 = assay: NCI-60 screen at 10 μM: HCC-2998; details: Colon Cancer HCC-2998; 10 μM single dose; 48 hrs
Experimental: as §1, §2, §3, §4

SNB-75 = assay: NCI-60 screen at 10 μM: SNB-75; details: CNS Cancer (Glioma) SNB-75; 10 μM single dose; 48 hrs
Experimental: as §1, §2, §3, §4

HCT-116 = assay: NCI-60 screen at 10 μM: HCT-116; details: Colon Cancer HCT-116; 10 μM single dose; 48 hrs
Experimental: as §1, §2, §3, §4

IGROV1 = assay: NCI-60 screen at 10 μM: IGROV1; details: Ovarian Cancer IGROV1; 10 μM single dose; 48 hrs
Experimental: as §1, §2, §3, §4

HCT-15 = assay: NCI-60 screen at 10 μM: HCT-15; details: Colon Cancer HCT-15; 10 μM single dose; 48 hrs
Experimental: as §1, §2, §3, §4

NCI-H23 = assay: NCI-60 screen at 10 μM: NCI-H23; details: NSCLC NCI-H23; 10 μM single dose; 48 hrs
Experimental: as §1, §2, §3, §4

NCI-H322M = assay: NCI-60 screen at 10 μM: NCI-H322M; details: NSCLC NCI-H322M; 10 μM single dose; 48 hrs
Experimental: as §1, §2, §3, §4

MCF7 = assay: NCI-60 screen at 10 μM: MCF7; details: Breast Cancer MCF7; 10 μM single dose; 48 hrs
Experimental: as §1, §2, §3, §4

SK-OV-3 = assay: NCI-60 screen at 10 μM: SK-OV-3; details: Ovarian Cancer SK-OV-3; 10 μM single dose; 48 hrs
Experimental: as §1, §2, §3, §4

SN12C = assay: NCI-60 screen at 10 μM: SN12C; details: Renal Cancer SN12C; 10 μM single dose; 48 hrs
Experimental: as §1, §2, §3, §4

SF-268 = assay: NCI-60 screen at 10 μM: SF-268; details: CNS Cancer (Glioma) SF-268; 10 μM single dose; 48 hrs
Experimental: as §1, §2, §3, §4

HOP-92 = assay: NCI-60 screen at 10 μM: HOP-92; details: NSCLC HOP-92; 10 μM single dose; 48 hrs
Experimental: as §1, §2, §3, §4

SK-MEL-2 = assay: NCI-60 screen at 10 μM: SK-MEL-2; details: Melanoma SK-MEL-2; 10 μM single dose; 48 hrs
Experimental: as §1, §2, §3, §4

NCI/ADR-RES = assay: NCI-60 screen at 10 μM: NCI/ADR-RES; details: Ovarian Cancer NCI/ADR-RES; 10 μM single dose; 48 hrs
Experimental: as §1, §2, §3, §4

UACC-62 = assay: NCI-60 screen at 10 μM: UACC-62; details: Melanoma UACC-62; 10 μM single dose; 48 hrs
Experimental: as §1, §2, §3, §4

KM12 = assay: NCI-60 screen at 10 μM: KM12; details: Colon Cancer KM12; 10 μM single dose; 48 hrs
Experimental: as §1, §2, §3, §4

A549/ATCC = assay: NCI-60 screen at 10 μM: A549/ATCC; details: NSCLC A549/ATCC; 10 μM single dose; 48 hrs
Experimental: as §1, §2, §3, §4

| SMILES | Growth % (M14) [%] | Growth % (OVCAR-8) [%] | Growth % (RXF 393) [%] | Growth % (UO-31) [%] | Growth % (OVCAR-3) [%] | Growth % (NCI-H460) [%] | Growth % (T-47D) [%] | Growth % (HCC-2998) [%] | Growth % (SNB-75) [%] | Growth % (HCT-116) [%] | Growth % (IGROV1) [%] | Growth % (HCT-15) [%] | Growth % (NCI-H23) [%] | Growth % (NCI-H322M) [%] | Growth % (MCF7) [%] | Growth % (SK-OV-3) [%] | Growth % (SN12C) [%] | Growth % (SF-268) [%] | Growth % (HOP-92) [%] | Growth % (SK-MEL-2) [%] | further results |
| --- | --- | --- | --- | --- | --- | --- | --- | --- | --- | --- | --- | --- | --- | --- | --- | --- | --- | --- | --- | --- | --- |
| Cn1c(CCNCc2ccc(/C=C/C(=O)NO)cc2)nc2cc(N(CCCl)CCCl)ccc21 [CY-102] | −76.75 | −26.88 | −35.55 | −9.19 | −55.02 | 2.61 | −27.48 | −80.55 | −48.45 | −1.84 | −14.43 | 9.96 | −6.76 | −15.30 | −15.28 | −41.53 | −1.53 | −31.46 | −35.89 | −21.36 | Growth % (NCI/ADR-RES): 17.78%; Growth % (UACC-62): −69.24%; Growth % (KM12): −78.14%; Growth % (A549/ATCC): −32.69% |
| Cn1c(CCCCCCC(=O)NO)nc2cc(N(CCCl)CCCl)ccc21 [NL-101] | 39.93 | 32.65 | 5.95 | 63.69 | 50.40 | 25.56 | −16.57 | 86.98 | 19.79 | 23.73 | 55.99 | 76.48 | 30.14 | 75.30 | 37.24 | 34.40 | 17.91 | 10.27 | 22.07 | 37.31 | Growth % (NCI/ADR-RES): 77.80%; Growth % (UACC-62): 12.99%; Growth % (KM12): 65.79%; Growth % (A549/ATCC): 43.54% |
